Experiments:
cellular TGF-β R1 ALK5 = biological target: T1, cellular TGF-β R1 ALK5 (Homo sapiens, UniProt P36897); experiment: Cellular inhibition of ALK5 (CellSensor SBE-bla HEK 293T beta-lactamase reporter); format: cell-based; settings: cellular inhibition of ALK5, SBE-bla HEK 293T cells, TGFb-1 stimulated 5 hours; average where measured in multiple experiments
T1 construct: host or cells: CellSensor SBE-bla HEK 293T
T1 sequence (P36897 34-503): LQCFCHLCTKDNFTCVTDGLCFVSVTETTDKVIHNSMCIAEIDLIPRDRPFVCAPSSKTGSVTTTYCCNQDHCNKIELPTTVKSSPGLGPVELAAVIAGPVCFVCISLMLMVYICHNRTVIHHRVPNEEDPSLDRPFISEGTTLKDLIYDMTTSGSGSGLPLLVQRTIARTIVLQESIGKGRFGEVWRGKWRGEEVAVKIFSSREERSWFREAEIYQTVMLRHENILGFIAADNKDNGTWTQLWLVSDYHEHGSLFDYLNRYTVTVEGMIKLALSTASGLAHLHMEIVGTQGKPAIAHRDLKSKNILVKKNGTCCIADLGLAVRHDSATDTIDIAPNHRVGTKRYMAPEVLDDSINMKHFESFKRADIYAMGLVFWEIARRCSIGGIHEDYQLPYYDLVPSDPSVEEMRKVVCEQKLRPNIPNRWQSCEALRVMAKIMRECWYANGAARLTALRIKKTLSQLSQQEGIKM
Method in brief: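 pIC50 derives from non-linear fitting of percent inhibition of the 460/530 nm CCF4-AM emission ratio, relative to DMSO+TGF-β wells. HEK 293T SBE-bla cells received compound (0.5% DMSO) for 1 h, TGFb-1 (100 ng/mL stock) for 5 h at 37 °C, then substrate 2 h at RT.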

TGF-β R1 ALK5 = biological target: T2, TGF-β R1 ALK5 (Homo sapiens, UniProt P36897); experiment: In vitro inhibition of ALK5 (LanthaScreen activity assay, TR-FRET); format: biochemical
T2 construct: purchased Invitrogen PV5837
T2 sequence (P36897 34-503): T1 sequence (P36897 34-503)

IC50 (cellular TGF-β R1 ALK5) [nM] | IC50 (TGF-β R1 ALK5) [nM] | Structure (SMILES)
6.31 | < 1 | CCNC(=O)n1ncc2nccc(Nc3cc(-c4nc(C)ccc4F)ncc3C)c21 [Example 115, N-ethyl-7-(3′-fluoro-5,6′-dimethyl-2,2′-bipyridin-4-ylamino)-1H-pyrazolo[4,3-b]pyridine-1-carboxamide]
25.1 | 1 | CNC(=O)n1ncc2nccc(Nc3cc(-c4cc(F)ccc4F)ncc3C)c21 [Example 116, 7-(2-(2,5-difluorophenyl)-5-methylpyridin-4-ylamino)-N-methyl-1H-pyrazolo[4,3-b]pyridine-1-carboxamide]
126 | 10 | Cc1ccc(F)c(-c2cc(Nc3ccnc4cnn(CC(=O)NC5CC5)c34)c(C)cn2)n1 [Example 117, N-cyclopropyl-2-(7-(3′-fluoro-5,6′-dimethyl-2,2′-bipyridin-4-ylamino)-1H-pyrazolo[4,3-b]pyridin-1-yl)acetamide]
794 | 100 | Cc1ccc(F)c(-c2cc(Nc3ccnc4cn(CC(=O)NC5CC5)nc34)c(C)cn2)n1 [Example 118, N-cyclopropyl-2-(7-(3′-fluoro-5,6′-dimethyl-2,2′-bipyridin-4-ylamino)-2H-pyrazolo[4,3-b]pyridin-2-yl)acetamide]
79.4 | 20 | Cc1ccc(F)c(-c2cc(Nc3ccnc4cn(CCC(C)(C)O)nc34)ccn2)n1 [Example 119, 4-(7-(3′-fluoro-6′-methyl-2,2′-bipyridin-4-ylamino)-2H-pyrazolo[4,3-b]pyridin-2-yl)-2-methylbutan-2-ol]

The next lines start with the molecule.

Structure (SMILES) | IC50 (cellular TGF-β R1 ALK5) [nM] | IC50 (TGF-β R1 ALK5) [nM]
Cc1ccc(F)c(-c2cc(Nc3ccnc4cn(C[C@H](C)O)nc34)ccn2)n1 [Example 107, (S)-1-(7-(3′-fluoro-6′-methyl-2,2′-bipyridin-4-ylamino)-2H-pyrazolo[4,3-b]pyridin-2-yl)propan-2-ol] | 39.8 | 6.31
Cc1cnc(-c2cc(F)ccc2F)cc1Nc1ccnc2cn[nH]c12 [Example 108, N-(2-(2,5-difluorophenyl)-5-methylpyridin-4-yl)-1H-pyrazolo[4,3-b]pyridin-7-amine] | 7.94 | 1
CCNC(=O)n1ncc2nccc(Nc3cc(-c4cc(F)ccc4F)ncc3C)c21 [Example 109, 7-(2-(2,5-difluorophenyl)-5-methylpyridin-4-ylamino)-N-ethyl-1H-pyrazolo[4,3-b]pyridine-1-carboxamide] | 20 | 1.58
Cc1cnc(-c2cc(F)ccc2F)cc1Nc1ccnc2cnn(C(=O)NC(C)C)c12 [Example 110, 7-(2-(2,5-difluorophenyl)-5-methylpyridin-4-ylamino)-N-isopropyl-1H-pyrazolo[4,3-b]pyridine-1-carboxamide] | 158 | 5.01
CNC(=O)Cn1cc2nccc(Nc3ccnc(-c4nc(C)ccc4F)c3)c2n1 [Example 111, 2-(7-(3′-fluoro-6′-methyl-2,2′-bipyridin-4-ylamino)-2H-pyrazolo[4,3-b]pyridin-2-yl)-N-methylacetamide] | 12600 | 501
Cc1ccc(F)c(-c2cc(Nc3ccnc4cn(CC(O)C(F)(F)F)nc34)ccn2)n1 (centres unmarked) [Example 112, 1,1,1-trifluoro-3-(7-(3′-fluoro-6′-methyl-2,2′-bipyridin-4-ylamino)-2H-pyrazolo[4,3-b]pyridin-2-yl)propan-2-ol] | 501 | 63.1
Cc1ccc(F)c(-c2cc(Nc3ccnc4cnn(CC(O)C(F)(F)F)c34)ccn2)n1 (centres unmarked) [Example 113, 1,1,1-trifluoro-3-(7-(3′-fluoro-6′-methyl-2,2′-bipyridin-4-ylamino)-1H-pyrazolo[4,3-b]pyridin-1-yl)propan-2-ol] | 1580 | 50.1
Cc1ccc(F)c(-c2cc(Nc3ccnc4cn(C[C@@H](C)O)nc34)ccn2)n1 [Example 114, (R)-1-(7-(3′-fluoro-6′-methyl-2,2′-bipyridin-4-ylamino)-2H-pyrazolo[4,3-b]pyridin-2-yl)propan-2-ol] | 1260 | 158

— patent US9073918B2, “Pyrazolo[4,3-b]pyridine-7-amine inhibitors of ALK5” (Takeda Pharmaceutical Company Limited, priority 2010, dated 2015)
